Tests used:
Format in all cases: in vivo
Meloidogyne incognita [1] = assay: Meloidogyne test (Example A); conditions: 20 ppm active compound, gall formation on lettuce roots
Procedure: (§1) Meloidogyne Test Solvent: 30 parts by weight of dimethylformamide Emulsifier: 1 part by weight of alkylaryl polyglycol ether To produce a suitable preparation of active compound, 1 part by weight of active compound is mixed with the stated amounts of solvent and emulsifier, and the concentrate is diluted with water to the desired concentration. Containers are filled with sand, solution of active compound, Meloidogyne incognita egg/larvae suspension and lettuce seeds. The lettuce seeds germinate and the plants develop. On the roots, galls are formed. After the desired period of time, the nematicidal action in % is determined using the formation of galls as a measure. 100% means that no galls have been found; 0% means that the number of galls on the treated plants corresponds to that on the untreated control.

Sphaerotheca fuliginea = assay: Sphaerotheca test (cucumber)/protective; conditions: 750 g/ha, protective, evaluation 7 days after inoculation
Procedure: Sphaerotheca Test (Cucumber)/Protective
Solvent: 48.8 parts by weight of N,N-dimethylformamide
Emulsifier: 1.2 parts by weight of alkylaryl polyglycol ether
(§2) To produce a suitable preparation of active compound, 1 part by weight of active compound is mixed with the stated amounts of solvent and emulsifier, and the concentrate is diluted with water to the desired concentration.
To test for protective activity, young cucumber plants are sprayed with the preparation of active compound at the stated application rate. 1 day after the treatment, the plants are inoculated with a spore suspension of Sphaerotheca fuliginea. The plants are then placed in a greenhouse at 70% relative atmospheric humidity and a temperature of 23° C.
Evaluation is carried out 7 days after the inoculation. 0% means an efficacy which corresponds to that of the control, whereas an efficacy of 100% meais that no infection is observed.

[2] = test system: caterpillars of the army worm (Spodoptera frugiperda); assay: Spodoptera frugiperda test; conditions: 1000 ppm, cabbage leaves dipped
Procedure: (§3) Spodoptera frugiperda Test Solvent: 30 parts by weight of dimethylformamide Emulsifier: 1 part by weight of alkylaryl polyglycol ether To produce a suitable preparation of active compound, 1 part by weight of active compound is mixed with the stated amounts of solvent and emulsifier, and the concentrate is diluted with water to the desired concentration. Cabbage leaves (Brassica oleracea) are treated by being dipped into the preparation of active compound of the desired concentration and are populated with caterpillars of the army worm (Spodoptera frugiperda) while the leaves are still moist. After the desired period of time, the kill in % is determined. 100% means that all of the caterpillars have been killed; 0%. means that none of the caterpillars has been killed. In this test, for example, the following compounds of the Preparation Examples show good activity.

[3] = test system: larvae of the mustard beetle (Phaedon cochleariae); assay: Phaedon larvae test; conditions: 1000 ppm, cabbage leaves dipped
Procedure: as §3, with “Phaedon larvae Test” for “Spodoptera frugiperda Test”, “with larvae” for “with caterpillars”, “the mustard beetle (Phaedon cochleariae)” for “the army worm (Spodoptera frugiperda)”, “the beetle larvae” for “the caterpillars”, “been killed. 0%” for “been killed; 0%.”

[4] = test system: greenhouse red spider mite (Tetranychus urticae); assay: Tetranychus test (OP-resistant/dip treatment); conditions: bean plants dipped
Procedure: Tetranychus Test (OP-Resistant/Dip Treatment)
Solvent: 30 parts by weight of dimethylformamide
Emulsifier: 1 part by weight of alkylaryl polyglycol ether
as §2
Bean plants (Phaseolus vulgaris) which are heavily infested by all stages of the greenhouse red spider mite (Tetranychus urticae) are dipped into a preparation of active compound of the desired concentration.
After the desired period of time, the effect in % is determined. 100% means that all of the spider mites have been killed, 0% means that none of the spider mites has been killed.
In this test, for example, the following compounds of the Preparation Examples show good activity.

[5] = test system: peach aphid (Myzus persicae); assay: Myzus test; conditions: 1000 ppm, cabbage leaves dipped
Procedure: as §3, with “Myzus Test” for “Spodoptera frugiperda Test”, “oleracea) which are heavily infested by the peach aphid (Myzus persicae)” for “oleracea)”, “into a” for “into the”, “desired concentration.” for “desired concentration and are populated with caterpillars of the army worm (Spodoptera frugiperda) while the leaves are still moist.”, “the aphids” for “the caterpillars”, “been killed: 0%” for “been killed; 0%.”

[6] = test system: fruit tree red spider mite (Panonychus ulmi); assay: Panonychus test; conditions: 200 ppm, plum trees sprayed
Procedure: Panonychus Test Solvent: 3 parts by weight of dimethylformamide Emulsifier: 1 part by weight of alkylaryl polyglycol ether To produce a suitable preparation of active compound, 1 part by weight of active compound is mixed with the stated amounts of solvent and emulsifier, and the concentrate is diluted with water to the desired concentration. Plum trees (Prunus domestica), of a height of approximately 30 cm, which are heavily infested by all stages of the fruit tree red spider mite (Panonychus ulmi) are sprayed with a preparation of active compound of the desired concentration. After the desired period of time, the effect in % is determined. 100% means that all of the spider mites have been killed: 0% means that none of the spider mites has been killed.

Meloidogyne incognita [7] = assay: Meloidogyne test (Example G); conditions: 20 ppm; gall formation on lettuce roots
Procedure: as §1, with “Test Solvent: 8 parts by” for “Test Solvent: 30 parts by”, “of active compound. Meloidogyne incognita” for “of active compound, Meloidogyne incognita”

Cc1cc(-c2ccc(Cl)cc2)cc(C)c1C1=C(OC(=O)C(C)C)C(C)(C)C(C)(C)OC1=O [Ex. I-A-b-1]
Kill rate in % after 14d (Meloidogyne incognita [1]): 100%

COC1OC(=O)C(c2ccc(Cl)cc2C)=C(OC(C)=O)C1(C)C (centres unmarked) [Ex. I-A-b-3]
Efficacy in % (Sphaerotheca fuliginea): 80%

Cc1ccc(-c2ccc(Cl)cc2)cc1C1=C(OC(=O)C(C)C)C(C)(C)C(C)(C)OC1=O [Ex. I-A-b-10]
Kill rate in % after 7d [2]: 100% | Kill rate in % after 14d (Meloidogyne incognita [1]): 100% | Kill rate in % after 7d [3]: 100%

Cc1cc(-c2ccc(Cl)cc2)cc(C)c1C1=C(OC(=O)C(C)C)C(C)(C)COC1=O [Ex. I-A-b-11]
Kill rate in % after 7d [3]: 100%

Cc1ccc(-c2ccc(Cl)cc2)cc1C1=C(OC(=O)OC(C)C)C(C)(C)C(C)(C)OC1=O [Ex. I-A-c-3]
Kill rate in % after 7d [3]: 90% | Kill rate in % after 7d ([4]; 0.01 ppm): 100%

COC1OC(OC(C)=O)=C(c2ccc(Cl)cc2C)C(=O)C1(C)C (centres unmarked) [Ex. I-B-b-13]
Efficacy in % (Sphaerotheca fuliginea): 70%

Cc1cc(C)c(C2=C(OC(=O)C(C)C)OC(C)(C)C(C)(C)C2=O)c(C)c1 [Ex. I-B-b-16]
Kill rate in % after 7d ([4]; 100 ppm): 100%

Cc1cc(C)c(C2=C(OC(=O)C(C)C)OCC(C)(C)C2=O)c(C)c1 [Ex. I-B-b-17]
Kill rate in % after 14d (Meloidogyne incognita [1]): 90% | Kill rate in % after 7d ([4]; 100 ppm): 100%

Cc1cc(C)c(C2=C(OC(=O)OC(C)C)OCC(C)(C)C2=O)c(C)c1 [Ex. I-B-c-1]
Kill rate in % after 14d (Meloidogyne incognita [1]): 90% | Kill rate in % after 7d ([4]; 100 ppm): 100%

Cc1cc(-c2ccc(Cl)cc2)cc(C)c1C1=C(O)C(C)(C)C(C)(C)OC1=O [Ex. I-a-1]
Kill rate in % after 7d [3]: 100%

Cc1ccc(-c2ccc(Cl)cc2)cc1C1=C(O)C(C)(C)COC1=O [Ex. I-a-5]
Kill rate in % after 14d (Meloidogyne incognita [1]): 100% | Kill rate in % after 7d [3]: 100% | Kill rate in % after 6d [5]: 95%

Cc1ccc(-c2ccc(Cl)cc2)cc1C1=C(O)C(C)(C)C(C)(C)OC1=O [Ex. I-a-6]
Kill rate in % after 7d [2]: 100% | Kill rate in % after 7d [3]: 100% | Kill rate in % after 14d [6]: 100% | Kill rate in % after 6d [5]: 95% | Kill rate in % after 7d ([4]; 100 ppm): 100%

Cc1cc(C)c(C2=C(O)C(C)(C)C(C)(C)OC2=O)c(C)c1 [Ex. I-a-7]
Kill rate in % at active compound concentration in ppm (Meloidogyne incognita [7]): 20 ppm = 100% | Kill rate in % after 6d [5]: 90%

Cc1cc(-c2ccc(Cl)cc2)cc(C)c1C1=C(O)C(C)(C)COC1=O [Ex. I-a-13]
Kill rate in % after 7d [3]: 100%
